According to patent publication US4024282A, “Pharmaceutically active 2-(3-alkylaminopropoxy)diphenylmethanes” (Mitsubishi Chemical Industries Ltd., priority 1975, dated 1977):
Where a name gives a salt, the structure may show the parent alone. Read-outs that look alike come from different tables or passages of the source.

Experiments:
[1] = system: reserpine induced hypothermia; assay: Antagonism of reserpine induced hypothermia in mice (antireserpine / antidepressant activity); format: in vivo; conditions: for Antidepressant activity (in words): according to pharmacological testing, reversal of reserpine hypothermia in mice
Protocol: (§1) The compounds were administered intraperitoneally and the activities of the compounds were compared with those of Amitriptyline.

in vivo = conditions: mouse, ip
[2] = system: neurological deficit as measured by traction tests; assay: Traction test (CNS depressant activity, muscle relaxant action); format: in vivo; conditions: mice; for ED50: Mus musculus, ip, traction test, dose preventing 50% of response
Protocol: as §1

[3] = system: spontaneous motor activity; assay: Spontaneous motor activity measured by ANIMEX apparatus (CNS depressant activity); format: in vivo; conditions: Mus musculus, ip, mice, i.p., dose preventing 50% of response, read-out: Spontaneous motor activity depression ED50
Protocol: as §1

[4] = system: electroshock induced tonic extensor; assay: Antagonism of electroshock induced tonic extensor (anticonvulsant activity); format: in vivo; conditions: Mus musculus, ip; mice; dose preventing 50% of response
Protocol: as §1

tremorine induced tremor = assay: Tremorine induced tremor (central anticholinergic effect); format: in vivo; conditions: mice; for ED50: Mus musculus, ip, i.p., dose preventing 50% of response, read-out: Antitremorine effect ED50
Protocol: as §1

[5] = mice, in b83 as compared with Amitriptyline at the same relative potency

CN(C)CCOc1ccccc1Cc1ccccc1 [2-(2-dimethylaminoethoxy) diphenylmethane]
Antidepressant activity (in words) [1]: do not possess antidepressant activity

CNCCOc1ccccc1Cc1ccccc1 [2-(2-methylaminoethoxy) diphenylmethane]
Antidepressant activity (in words) [1]: do not possess antidepressant activity

CN(C)CCCOc1ccccc1Cc1ccccc1 [2-(3-dimethylaminopropoxy)-diphenylmethane]
Antidepressant activity (in words) [1]: do not possess antidepressant activity

CNCCCOc1ccccc1Cc1ccccc1 [2-(3-methylaminopropoxy) diphenylmethane hydrochloride]
LD50 (in vivo): 160 mg/kg
Antireserpine activity, Relative Potency ([1]; mice, i.p., reserpine 5 mg/kg i.p., Amitriptyline = 1): 0.56
ED50 [2]: 65 mg/kg
ED50 [3]: 90 mg/kg
ED50 [4]: 40 mg/kg
ED50 (tremorine induced tremor): 42 mg/kg

CNCCCOc1ccccc1Cc1ccccc1 [2-(3-methylaminopropoxy) diphenylmethane]
Antidepressant activity (in words) [1]: high level of antidepressant activity
Toxicity (in words) [5]: low level of toxicity
Toxicity (in words) ([5]; listed as 2-(3-methylaminopropoxy)diphenylmethane): lower toxicity
CNS depressant action (in words) ([2]; as compared with Amitriptyline at the same relative potency, traction test and spontaneous motor activity): weaker CNS depressant
Anticholinergic action (in words) (tremorine induced tremor; as compared with Amitriptyline at the same relative potency): weaker CNS depressant and anticholinergic action

CN(C)CCC=C1c2ccccc2CCc2ccccc21 [Amitriptyline, reference compound]
LD50 (in vivo): 65 mg/kg
ED50 [2]: 15 mg/kg
ED50 [3]: 18 mg/kg
ED50 [4]: 16 mg/kg
ED50 (tremorine induced tremor): 4 mg/kg
